In patent US20100298376A1, “USE OF NOVEL NEUROPROTECTIVE 3-SUBSTITUTED INDOLONE COMPOSITIONS” (BOARD OF REGENTS, THE UNIVERSITY OF TEXAS SYSTEM, priority 2009, published 2010):
Read-outs that look alike come from different tables or passages of the source.

System: cerebellar granule neurons
Settings: for % neuronal survival Mean ± SD: 24 hours, percent of HK control
Description: These compounds were analyzed for their neuroprotective activity in vitro. Granule neuron cultures were obtained from dissociated cerebella of 7-8 day old Wistar rats as known to one of ordinary skill in the art. Cells were plated in Basal Eagle's Medium with Earles salts (BME) supplemented with 10% fetal calf serum (FCS), 25 mM KCl, 2 mM glutamine (Invitrogen), and 100 μg/ml gentamycin on dishes (Nunc) coated with poly-L-lysine in 24-well dishes at a density 1×10^6 cells/well. Cytosine arabinofuranoside (10 μM) was added to the culture medium 18-22 hours after plating to prevent replication of non-neuronal cells that yields highly pure culture of granule neurons. The neuronal cultures were maintained for 7-8 days prior to treatments.
This experimental model of neuronal apoptosis has been used widely used to understand the molecular mechanisms underlying neurodegeneration and to identify biological and chemical agents with neuroprotective efficacy. For this, the cells were rinsed once and then maintained in low K^+ medium (serum-free BME medium, 5 mM KCl; referred to as LK), or in the case of control cultures, in high K^+ medium (serum-free BME medium, supplemented with 20 mM KCl; referred to as HK). Each compound was tested at three different concentrations of 1 μM, 5 μM, and 25 μM. The 25 μM concentration was included to evaluate neurotoxicity. For treatments, the chemical compounds (dissolved in dimethylsulfoxide) were added directly to LK medium at the time of the switch from HK at concentrations of 1 μM, 5 μM, or 25 μM. Viability was assessed 24 hours later. Each compound was tested in duplicate (at each of the concentrations) and the experiment repeated at least 3 times. Although all compounds were solubilized in dimethylsulfoxide (DMSO), the amount of DMSO in the cultures never exceeded 0.1% (v/v).
The viability status of neuronal cultures treated with HK, LK, or LK medium supplemented with various compounds was evaluated by phase contrast microscopy and quantified by staining cell nuclei with 4′,6′-diamidino2-phenylindole hydrochloride (DAPI). Briefly, the cells were fixed in 4% paraformaldehyde for 20 minutes at 4′C. After washing in phosphate buffered saline, DAPI (1 μg/ml in phosphate buffered saline) was added for 15 min at room-temperature and viewed under ultraviolet light (260 nm). Cells with condensed or fragmented nuclei were scored as dead. […] Statistical analysis was performed using an unpaired, two-tailed Student's t test, compared to mean neuronal survival of control cultures receiving LK treatment and the quantitative data are presented in Tables 1 and 2 for each compound.

[1] = LK medium, concentration not specified

Row | Compound | neuroprotective activity (in words) [1] | % neuronal survival Mean ± SD (Table 2, 1 μM in LK medium) [%] | % neuronal survival Mean ± SD (Table 2, 5 μM in LK medium) [%] | % neuronal survival Mean ± SD (Table 2, 25 μM in LK medium) [%] | % neuronal survival Mean ± SD (Table 1, 1 μM in LK medium) [%] | % neuronal survival Mean ± SD (Table 1, 5 μM in LK medium) [%] | % neuronal survival Mean ± SD (Table 1, 25 μM in LK medium) [%] | neurotoxicity (in words) | neuroprotective activity (in words) (at all three concentrations)
1 | O=C1Nc2ccc(Cl)cc2/C1=C/c1ccc[nH]1 [Compound 36] | moderate protective activity | 71.2 ± 0.02 | 84.0 ± 16.97 | 82.6 ± 10.18 | – | – | – | – | –
2 | COc1cc(/C=C2\C(=O)Nc3ccc([N+](=O)[O-])cc32)cc(OC)c1OC [Compound 23, (Z)-3-(3′, 4′,5′-Trimethoxybenzylidene)-5-nitroindolin-2-one] | – | – | – | – | 76.6 ± 15.98 | 61.9 ± 5.87 | 69.0 ± 11.26 | – | –
3 | O=C1Nc2ccc([N+](=O)[O-])cc2/C1=C/c1cc(Br)cc(Br)c1 [Compound 22, (Z)-3-(3′,5′-Dibromobenzylidene)-5-nitroindolin-2-one] | – | – | – | – | 78.1 ± 5.82 | 78.7 ± 15.86 | 74.5 ± 9.12 | – | –
4 | O=C1Nc2ccc([N+](=O)[O-])cc2/C1=C/c1ccc[nH]1 [Compound 39] | – | 84.4 ± 3.41 | 90.1 ± 6.55 | 87.9 ± 1.40 | – | – | – | – | –
5 | O=C1Nc2ccc(F)cc2/C1=C\c1cc(Br)c(O)c(Br)c1 [Compound 30, (E)-3-(3′,5′-Dibromo-4′-hydroxybenzylidene)-5-fluoro-indolin-2-one] | not effective | – | – | – | 49.3 ± 10.34 | 69.6 ± 8.96 | 18.1 ± 11.00 | toxic | –
6 | O=C1Nc2ccc([N+](=O)[O-])cc2/C1=C\C=Cc1ccccc1[N+](=O)[O-] [Compound 27] | – | – | – | – | 78.6 ± 6.84 | 51.9 ± 7.50 | 78.6 ± 16.33 | – | –
7 | CN(C)c1ccc(/C=C2/C(=O)Nc3ccc(Cl)cc32)cc1 [Compound 15, (E)-5-Chloro-3-(4′-(dimethylamino)benzylidene)indolin-2-one] | – | – | – | – | 51.8 ± 15.66 | 55.8 ± 16.94 | 79.7 ± 4.69 | – | –
8 | (Z)-5-Bromo (3-(1H-pyrrol-2′-yl)methylene)indolin-2-one [Compound 37] | one of the most potent effective neuroprotective agents discovered | 75.5 ± 14.58 | 94.2 ± 0.15 | 93.0 ± 1.38 | – | – | – | – | –
9 | COc1cc(/C=C2\C(=O)Nc3ccc(F)cc32)cc(OC)c1OC [Compound 32, (Z)-5-Fluoro-3-(3′, 4′,5′-trimethoxybenzylidene)indolin-2-one] | not effective | – | – | – | 59.2 ± 1.77 | 51.9 ± 7.14 | 31.9 ± 1.77 | – | –
10 | O=C1Nc2ccccc2/C1=C\c1ccco1 [Compound 45, (E)-3-(Furan-2′-ylmethylene)indoline-2-one] | excellent activity | 70.4 ± 8.35 | 82.8 ± 5.22 | 90.2 ± 3.91 | – | – | – | – | –
11 | O=C1Nc2ccc([N+](=O)[O-])cc2/C1=C/c1cccs1 [Compound 42, (Z)-5-Nitro-3-(thien-2′-ylmethylene)indolin-2-one] | – | 75.1 ± 9.11 | 67.6 ± 2.29 | 66.9 ± 10.30 | – | – | – | – | –
12 | (Z)-5-Bromo-3-(thien-2′-ylmethylene)indolin-2-one [Compound 43] | – | 56.8 ± 5.62 | 58.3 ± 9.82 | 66.4 ± 4.56 | – | – | – | – | –
13 | O=C1Nc2ccc(F)cc2/C1=C\c1ccccc1 [Compound 33, (E)-3-Benzylidene-5-fluoroindolin-2-one] | not effective | – | – | – | 53.4 ± 2.12 | 51.9 ± 15.56 | 31.5 ± 17.51 | – | –
14 | O=C1Nc2ccc([N+](=O)[O-])cc2/C1=C\C=C\c1ccccc1 [Compound 26] | – | – | – | – | 80.1 ± 4.21 | 78.6 ± 13.04 | 83.9 ± 9.28 | – | –
15 | CC(=O)Oc1c(Br)cc(/C=C2/C(=O)Nc3ccc(Cl)cc32)cc1Br [Compound 9, (E)-2,6-Dibromo-4-(5′-chloro-2′-oxoindolin-3-ylidene)methyl)phenyl acetate] | reduced activity | – | – | – | 73.0 ± 5.59 | 84.6 ± 16.19 | 75.2 ± 31.54 | – | –
16 | CN(C)c1ccc(/C=C2\C(=O)Nc3ccc([N+](=O)[O-])cc32)cc1 [Compound 29, (Z)-3-(4′-(Dimethylamino)benzylidene)-5-nitroindolin-2-one] | – | – | – | – | 70.4 ± 9.37 | 67.6 ± 10.31 | 66.9 ± 9.86 | – | –
17 | O=C1Nc2ccccc2/C1=C\c1cc(Br)cc(Br)c1 [Compound 2, (E)-3-(3′,5′-Dibromobenzylidene)indolin-2-one] | – | – | – | – | 54.7 ± 5.32 | 45.4 ± 4.32 | 46.9 ± 12.30 | – | not protective
18 | O=C1Nc2ccc(Cl)cc2/C1=C\c1ccccc1 [Compound 12, (E)-3-Benzylidene-5-chloroindolin-2-one] | not effective | – | – | – | 58.6 ± 3.27 | 63.8 ± 8.63 | 41.1 ± 21.41 | – | –
19 | O=C1Nc2ccc(Cl)cc2/C1=C/c1cc(Br)cc(Br)c1 [Compound 8, (Z)-3-(3′,5′-Dibromobenzylidene)-5-chloroindolin-2-one] | substantially less effective | – | – | – | 77.7 ± 17.51 | 68.5 ± 11.86 | 64.4 ± 9.65 | – | –
20 | O=C1Nc2ccccc2/C1=C/c1ccc[nH]1 [Compound 35] | – | 56.0 ± 17.21 | 51.1 ± 7.06 | 3.88 ± 9.58 | – | – | – | – | –
21 | O=C1Nc2ccc(F)cc2/C1=C/c1cccs1 [Compound 44, (Z)-5-Fluoro-3-(thien-2′-ylmethylene)indolin-2-one] | low protection | 53.6 ± 14.24 | 60.1 ± 10.28 | 68.7 ± 9.35 | – | – | – | – | –
22 | O=C1Nc2ccccc2/C1=C\c1c(Cl)cccc1Cl [Compound 5, (E)-3-(2′,6′-Dichlorobezylidene)indolin-2-one] | ineffective | – | – | – | 54.6 ± 10.27 | 52.9 ± 3.94 | 24.5 ± 12.38 | toxic | –
